# Data as given in article PMC5218480 (PLoS ONE, 2017).
# Test system: MV-4-11 cells
# Assay: Gene expression microarray analysis (Affymetrix PrimeView) and GSEA
# Assay type: cell-based, human
# Parameters: RFU PODN (11730768_x_at) / Fold change /veh PODN (11730768_x_at) / RFU LINC00158 (11744669_a_at) / Fold change /veh LINC00158 (11744669_a_at) / RFU DUSP10 (11751237_a_at) / Fold change /veh DUSP10 (11751237_a_at) / RFU ID3 (11757404_x_at) / Fold change /veh ID3 (11757404_x_at) / RFU PLEKHG5 (11737974_s_at) / Fold change /veh PLEKHG5 (11737974_s_at) / RFU LRRC4B (11730491_at) / Fold change /veh LRRC4B (11730491_at) / RFU GIMAP4 (11747438_a_at) / Fold change /veh GIMAP4 (11747438_a_at) / RFU KRT8 (11758183_x_at) / Fold change /veh KRT8 (11758183_x_at) / RFU CNN1 (11734310_a_at) / Fold change /veh CNN1 (11734310_a_at) / RFU VPS37D (11726825_at) / Fold change /veh VPS37D (11726825_at) / RFU C10orf10 (11716522_x_at) / Fold change /veh C10orf10 (11716522_x_at) / RFU KIR2DL2 /// KIR2DL4 /// KIR2DL5A /// KIR2DL5B /// KIR2DS1 /// KIR2DS2 /// KIR2DS3 /// KIR2DS4 /// KIR3DL3 /// KIR3DL3 /// KIR3DS1 (11738374_at) / Fold change /veh KIR2DL2 /// KIR2DL4 /// KIR2DL5A /// KIR2DL5B /// KIR2DS1 /// KIR2DS2 /// KIR2DS3 /// KIR2DS4 /// KIR3DL3 /// KIR3DL3 /// KIR3DS1 (11738374_at) / RFU C1QL1 (11718748_at) / Fold change /veh C1QL1 (11718748_at) / RFU TMPRSS4 (11747572_a_at) / Fold change /veh TMPRSS4 (11747572_a_at) / RFU HAMP (11756126_x_at) / Fold change /veh HAMP (11756126_x_at) / RFU RNFT2 (11725882_a_at) / Fold change /veh RNFT2 (11725882_a_at) / RFU NR4A2 (11747474_a_at) / Fold change /veh NR4A2 (11747474_a_at) / RFU ABCC12 (11746883_a_at) / Fold change /veh ABCC12 (11746883_a_at) / RFU TMEM136 (11760407_x_at) / Fold change /veh TMEM136 (11760407_x_at) / RFU CLDN22 /// WWC2 (11732394_at) / Fold change /veh CLDN22 /// WWC2 (11732394_at) / RFU HLA-DPB1 (11760878_x_at) / Fold change /veh HLA-DPB1 (11760878_x_at) / RFU SPINT1 (11716480_a_at) / Fold change /veh SPINT1 (11716480_a_at) / RFU GAP43 (11754022_s_at) / Fold change /veh GAP43 (11754022_s_at) / RFU A4GNT (11735810_at) / Fold change /veh A4GNT (11735810_at) / RFU PRB3 (11715151_x_at) / Fold change /veh PRB3 (11715151_x_at) / RFU TUBB4B (11761932_at) / Fold change /veh TUBB4B (11761932_at) / RFU CAPN14 (11732068_a_at) / Fold change /veh CAPN14 (11732068_a_at) / RFU TMCC2 (11721928_a_at) / Fold change /veh TMCC2 (11721928_a_at) / RFU IRGQ (11745062_a_at) / Fold change /veh IRGQ (11745062_a_at) / RFU FAM174B (11720279_a_at) / Fold change /veh FAM174B (11720279_a_at) / RFU TMPRSS4 (11748680_a_at) / Fold change /veh TMPRSS4 (11748680_a_at) / RFU FAM212B (11763350_a_at) / Fold change /veh FAM212B (11763350_a_at) / RFU PLEKHG5 (11743358_a_at) / Fold change /veh PLEKHG5 (11743358_a_at) / RFU ZSCAN30 (11745921_a_at) / Fold change /veh ZSCAN30 (11745921_a_at) / RFU CMKLR1 (11741424_a_at) / Fold change /veh CMKLR1 (11741424_a_at) / RFU LOC101060620 /// MAPK8IP1 (11723275_at) / Fold change /veh LOC101060620 /// MAPK8IP1 (11723275_at) / RFU SPTSSB (11747773_x_at) / Fold change /veh SPTSSB (11747773_x_at) / RFU PRSS12 (11739890_at) / Fold change /veh PRSS12 (11739890_at) / RFU BIN1 (11741810_x_at) / Fold change /veh BIN1 (11741810_x_at) / RFU WNT11 (11732464_a_at) / Fold change /veh WNT11 (11732464_a_at) / RFU C10orf10 (11716521_a_at) / Fold change /veh C10orf10 (11716521_a_at) / RFU C5orf56 (11738089_at) / Fold change /veh C5orf56 (11738089_at) / RFU CYB561 (11721691_x_at) / Fold change /veh CYB561 (11721691_x_at) / RFU ANKRD19P (11752326_a_at) / Fold change /veh ANKRD19P (11752326_a_at) / RFU OR2T12 /// OR2T33 /// OR2T8 (11738714_s_at) / Fold change /veh OR2T12 /// OR2T33 /// OR2T8 (11738714_s_at) / RFU VCAN (11748164_a_at) / Fold change /veh VCAN (11748164_a_at) / RFU JSRP1 (11732532_at) / Fold change /veh JSRP1 (11732532_at) / RFU KRTAP10-11 (11738290_x_at) / Fold change /veh KRTAP10-11 (11738290_x_at) / RFU MYO3A (11730013_a_at) / Fold change /veh MYO3A (11730013_a_at) / RFU EBF3 (11725865_a_at) / Fold change /veh EBF3 (11725865_a_at) / RFU CAMK2N1 (11719241_x_at) / Fold change /veh CAMK2N1 (11719241_x_at) / RFU C5orf56 (11738088_a_at) / Fold change /veh C5orf56 (11738088_a_at) / RFU OLFML3 (11715873_a_at) / Fold change /veh OLFML3 (11715873_a_at) / RFU LOC100653217 /// NTM (11731650_a_at) / Fold change /veh LOC100653217 /// NTM (11731650_a_at) / RFU MAPK11 (11762145_a_at) / Fold change /veh MAPK11 (11762145_a_at) / RFU FIZ1 (11724087_x_at) / Fold change /veh FIZ1 (11724087_x_at) / RFU OASL (11726364_x_at) / Fold change /veh OASL (11726364_x_at) / RFU SOX15 (11748057_x_at) / Fold change /veh SOX15 (11748057_x_at) / RFU CD79A (11719716_a_at) / Fold change /veh CD79A (11719716_a_at) / RFU HIST1H1D (11736915_at) / Fold change /veh HIST1H1D (11736915_at) / RFU CASKIN2 (11723855_a_at) / Fold change /veh CASKIN2 (11723855_a_at) / RFU LOC730098 (11760151_x_at) / Fold change /veh LOC730098 (11760151_x_at) / RFU OR4N2 (11742367_at) / Fold change /veh OR4N2 (11742367_at) / RFU PRRT2 (11749266_a_at) / Fold change /veh PRRT2 (11749266_a_at) / RFU SNX32 (11753110_a_at) / Fold change /veh SNX32 (11753110_a_at) / RFU CDHR5 (11726645_a_at) / Fold change /veh CDHR5 (11726645_a_at) / RFU RCAN1 (11760418_a_at) / Fold change /veh RCAN1 (11760418_a_at) / RFU FAM167A (11723789_a_at) / Fold change /veh FAM167A (11723789_a_at) / RFU FAM26E (11764081_at) / Fold change /veh FAM26E (11764081_at) / RFU ISYNA1 (11749810_s_at) / Fold change /veh ISYNA1 (11749810_s_at) / RFU ACY1 (11761880_at) / Fold change /veh ACY1 (11761880_at) / RFU 11764098_at / Fold change /veh 11764098_at / RFU SAMD14 (11745864_x_at) / Fold change /veh SAMD14 (11745864_x_at) / RFU NPB (11741838_a_at) / Fold change /veh NPB (11741838_a_at) / RFU TMPRSS6 (11731388_a_at) / Fold change /veh TMPRSS6 (11731388_a_at) / RFU KRTAP10-2 (11738614_at) / Fold change /veh KRTAP10-2 (11738614_at) / RFU ARHGAP8 /// PRR5-ARHGAP8 (11727945_x_at) / Fold change /veh ARHGAP8 /// PRR5-ARHGAP8 (11727945_x_at) / RFU KRTAP5-7 /// NADSYN1 (11734609_at) / Fold change /veh KRTAP5-7 /// NADSYN1 (11734609_at) / RFU RASL12 (11751679_a_at) / Fold change /veh RASL12 (11751679_a_at) / RFU CDKN2B (11736163_a_at) / Fold change /veh CDKN2B (11736163_a_at) / RFU PRF1 (11729649_at) / Fold change /veh PRF1 (11729649_at) / RFU, ZNF638 /// ZNF638-IT1 / Fold change vs veh, ZNF638 /// ZNF638-IT1 / RFU, PANK3 / Fold change vs veh, PANK3 / RFU, SH3YL1 / Fold change vs veh, SH3YL1 / RFU, ZEB2 / Fold change vs veh, ZEB2 / RFU, NRIP1 / Fold change vs veh, NRIP1 / RFU, PTTG1IP / Fold change vs veh, PTTG1IP / RFU, CAPN2 / Fold change vs veh, CAPN2 / RFU, MED14 / Fold change vs veh, MED14 / RFU, SNORA58 / Fold change vs veh, SNORA58 / RFU, C1orf63 / Fold change vs veh, C1orf63 / RFU, LRRFIP1 / Fold change vs veh, LRRFIP1 / RFU, NDUFAF7 / Fold change vs veh, NDUFAF7 / RFU, SLC12A2 / Fold change vs veh, SLC12A2 / RFU, IBTK / Fold change vs veh, IBTK / RFU, ESF1 / Fold change vs veh, ESF1 / Fold change vs veh, TMEM50B / RFU, TAOK1 / Fold change vs veh, TAOK1 / RFU, ACBD3 / Fold change vs veh, ACBD3 / RFU, TMA16 / Fold change vs veh, TMA16 / RFU, RWDD3 / Fold change vs veh, RWDD3 / RFU, BCAT1 / Fold change vs veh, BCAT1 / RFU, EDEM3 / Fold change vs veh, EDEM3 / RFU, TMEM33 / Fold change vs veh, TMEM33 / RFU, WDR75 / Fold change vs veh, WDR75 / RFU, AHCTF1 / Fold change vs veh, AHCTF1 / RFU, TFRC / Fold change vs veh, TFRC / RFU, ZDHHC17 / Fold change vs veh, ZDHHC17 / RFU, NOM1 / Fold change vs veh, NOM1 / RFU, ARL8B / Fold change vs veh, ARL8B / RFU, ZBTB11 / Fold change vs veh, ZBTB11 / RFU, TAMM41 / Fold change vs veh, TAMM41 / RFU, KIAA1704 /// LOC100996395 / Fold change vs veh, KIAA1704 /// LOC100996395 / RFU, ING1 / Fold change vs veh, ING1 / RFU, TRMT61B / Fold change vs veh, TRMT61B / RFU, FUBP3 / Fold change vs veh, FUBP3 / RFU, TP53 / Fold change vs veh, TP53 / RFU, TNKS2 / Fold change vs veh, TNKS2 / RFU, ZFP14 / Fold change vs veh, ZFP14 / RFU, ACTR2 / Fold change vs veh, ACTR2 / RFU, PPP3R1 / Fold change vs veh, PPP3R1 / RFU, PIK3R1 / Fold change vs veh, PIK3R1 / RFU, HNRNPA1 / Fold change vs veh, HNRNPA1 / RFU, RNF170 / Fold change vs veh, RNF170 / RFU, ZNF28 / Fold change vs veh, ZNF28 / RFU, RNGTT / Fold change vs veh, RNGTT / RFU, OGT / Fold change vs veh, OGT / RFU, BRD1 / Fold change vs veh, BRD1 / RFU, MARS / Fold change vs veh, MARS / RFU, ZNF655 / Fold change vs veh, ZNF655 / RFU, FAHD1 / Fold change vs veh, FAHD1 / RFU, BDP1 / Fold change vs veh, BDP1 / RFU, LRRCC1 / Fold change vs veh, LRRCC1 / RFU, ARID1A / Fold change vs veh, ARID1A / RFU, ZNF146 / Fold change vs veh, ZNF146 / RFU, ZNF330 / Fold change vs veh, ZNF330 / RFU, GPN3 / Fold change vs veh, GPN3 / RFU, C9orf123 / Fold change vs veh, C9orf123 / RFU, N4BP2L2 / Fold change vs veh, N4BP2L2 / RFU, ARFIP1 / Fold change vs veh, ARFIP1 / RFU, FAM179B / Fold change vs veh, FAM179B / RFU, BCL10 / Fold change vs veh, BCL10 / RFU, UHRF1BP1L / Fold change vs veh, UHRF1BP1L / RFU, BET1 / Fold change vs veh, BET1 / RFU, CNOT2 / Fold change vs veh, CNOT2 / RFU, ZNF268 / Fold change vs veh, ZNF268 / Fold change vs veh, ZNF507 / RFU, DGCR2 / Fold change vs veh, DGCR2 / RFU, WDSUB1 / Fold change vs veh, WDSUB1 / Fold change vs veh, HSP90B1 /// MIR3652 / RFU, ADSS / Fold change vs veh, ADSS / RFU, GK / Fold change vs veh, GK / RFU, ZNF148 / Fold change vs veh, ZNF148 / RFU, TAF9 / Fold change vs veh, TAF9 / RFU, SLC1A5 / Fold change vs veh, SLC1A5 / RFU, SLMO2 / Fold change vs veh, SLMO2 / RFU, ABCC4 / Fold change vs veh, ABCC4 / RFU, LOC101060439 /// RAP1B / Fold change vs veh, LOC101060439 /// RAP1B / RFU, RFX7 / Fold change vs veh, RFX7 / RFU, GTPBP10 / Fold change vs veh, GTPBP10 / RFU, CNEP1R1 / Fold change vs veh, CNEP1R1 / RFU, BIVM-ERCC5 /// ERCC5 / Fold change vs veh, BIVM-ERCC5 /// ERCC5 / RFU, ILF3 / Fold change vs veh, ILF3 / RFU 11762660_at / Fold change /veh 11762660_at / RFU VCAN (11757783_s_at) / Fold change /veh VCAN (11757783_s_at) / RFU DDX43 (11728927_at) / Fold change /veh DDX43 (11728927_at) / RFU KRT8 (11758188_x_at) / Fold change /veh KRT8 (11758188_x_at) / RFU NKD1 (11759106_at) / Fold change /veh NKD1 (11759106_at) / RFU SRD5A1 (11742802_a_at) / Fold change /veh SRD5A1 (11742802_a_at) / RFU TPSAB1 /// TPSB2 (11721975_s_at) / Fold change /veh TPSAB1 /// TPSB2 (11721975_s_at) / RFU GSTM3 (11746129_a_at) / Fold change /veh GSTM3 (11746129_a_at) / RFU IL23R (11737362_x_at) / Fold change /veh IL23R (11737362_x_at) / RFU TMEM51 (11727254_a_at) / Fold change /veh TMEM51 (11727254_a_at) / RFU PIWIL2 (11732686_x_at) / Fold change /veh PIWIL2 (11732686_x_at) / RFU ORM1 (11744905_x_at) / Fold change /veh ORM1 (11744905_x_at) / RFU CCDC152 (11743942_at) / Fold change /veh CCDC152 (11743942_at) / RFU ECM1 (11717891_a_at) / Fold change /veh ECM1 (11717891_a_at) / RFU IL23R (11748794_a_at) / Fold change /veh IL23R (11748794_a_at) / RFU TNFAIP8L3 (11732012_x_at) / Fold change /veh TNFAIP8L3 (11732012_x_at) / RFU MBOAT4 (11741988_at) / Fold change /veh MBOAT4 (11741988_at) / RFU 11764193_at / Fold change /veh 11764193_at / RFU TMEM53 (11763286_at) / Fold change /veh TMEM53 (11763286_at) / RFU MAGEB2 (11727129_at) / Fold change /veh MAGEB2 (11727129_at) / RFU TMEM200A (11744735_a_at) / Fold change /veh TMEM200A (11744735_a_at) / RFU CCDC152 (11751479_a_at) / Fold change /veh CCDC152 (11751479_a_at) / RFU FAM211A (11726209_a_at) / Fold change /veh FAM211A (11726209_a_at) / RFU RGS16 (11746705_a_at) / Fold change /veh RGS16 (11746705_a_at) / RFU VCAN (11755009_s_at) / Fold change /veh VCAN (11755009_s_at) / RFU RHOB (11743442_s_at) / Fold change /veh RHOB (11743442_s_at) / RFU RGS16 (11720943_a_at) / Fold change /veh RGS16 (11720943_a_at) / RFU RGS16 (11720944_at) / Fold change /veh RGS16 (11720944_at) / RFU, VPS4B / Fold change vs veh, VPS4B / RFU, CREB1 / Fold change vs veh, CREB1 / RFU, DNAJC13 / Fold change vs veh, DNAJC13 / RFU, GNAQ / Fold change vs veh, GNAQ / RFU, CDK5R1 / Fold change vs veh, CDK5R1 / RFU, ZRANB3 / Fold change vs veh, ZRANB3 / RFU, CUL4A / Fold change vs veh, CUL4A / RFU, CCNY / Fold change vs veh, CCNY / RFU, UFL1 / Fold change vs veh, UFL1 / RFU, COG3 / Fold change vs veh, COG3 / RFU, DIAPH2 / Fold change vs veh, DIAPH2 / RFU, SKA2 / Fold change vs veh, SKA2 / RFU, AFF3 / Fold change vs veh, AFF3 / RFU, LMF1 / Fold change vs veh, LMF1 / RFU, IPO11 / Fold change vs veh, IPO11 / RFU, DFFB / Fold change vs veh, DFFB / RFU, FOXP1 / Fold change vs veh, FOXP1 / RFU, CARD8 / Fold change vs veh, CARD8 / RFU, STRN3 / Fold change vs veh, STRN3 / RFU, ADK / Fold change vs veh, ADK / RFU, RASSF2 / Fold change vs veh, RASSF2 / RFU, WIPF1 / Fold change vs veh, WIPF1 / RFU, LARP1B / Fold change vs veh, LARP1B / RFU, RASA1 / Fold change vs veh, RASA1 / RFU, RB1 / Fold change vs veh, RB1 / RFU, PPFIA1 / Fold change vs veh, PPFIA1 / RFU, MAT2A / Fold change vs veh, MAT2A / RFU, CCT5 / Fold change vs veh, CCT5 / RFU, WDR92 / Fold change vs veh, WDR92 / RFU, CUX1 / Fold change vs veh, CUX1 / RFU, TTC7A / Fold change vs veh, TTC7A / RFU, TMEM135 / Fold change vs veh, TMEM135 / RFU, DEPTOR / Fold change vs veh, DEPTOR / RFU, CPM / Fold change vs veh, CPM / RFU, DNAJB6 / Fold change vs veh, DNAJB6 / RFU, CACNA2D3 / Fold change vs veh, CACNA2D3 / RFU, DTX4 / Fold change vs veh, DTX4 / RFU, TFCP2 / Fold change vs veh, TFCP2 / RFU, GMCL1 /// GMCL1P1 / Fold change vs veh, GMCL1 /// GMCL1P1 / RFU, AEBP2 / Fold change vs veh, AEBP2 / RFU, SNHG1 /// SNORD22 /// SNORD25 /// SNORD26 /// SNORD27 /// SNORD28 /// SNORD29 /// SNORD31 / Fold change vs veh, SNHG1 /// SNORD22 /// SNORD25 /// SNORD26 /// SNORD27 /// SNORD28 /// SNORD29 /// SNORD31 / Fold change (Aza/veh), C12orf56 (ProbeSet 11735607_a_at) / Fold change (ACY-1035/veh), C12orf56 (ProbeSet 11735607_a_at) / Fold change (Aza/veh), FGFR1OP (ProbeSet 11751329_s_at) / Fold change (ACY-1035/veh), FGFR1OP (ProbeSet 11751329_s_at) / Fold change (Aza/veh), VPS36 (ProbeSet 11739960_a_at) / Fold change (ACY-1035/veh), VPS36 (ProbeSet 11739960_a_at) / RFU SYPL1 (11715823_x_at) / Fold change /veh SYPL1 (11715823_x_at) / RFU IGFBP7 (11715501_s_at) / Fold change /veh IGFBP7 (11715501_s_at) / RFU REEP3 (11722064_at) / Fold change /veh REEP3 (11722064_at) / RFU IGLL1 (11728026_x_at) / Fold change /veh IGLL1 (11728026_x_at): dose or concentration left out as unconfirmed
# Settings: MV-4-11 cells, 48 hours
structure (smiles),measurement,value
Nc1ccc(-c2cccs2)cc1NC(=O)c1ccc2c(c1)cc(C1CC1)n2CCN1CCOCC1 [ACY-1035],Fold change /veh RNFT2 (11725882_a_at),1.00
